Measurements as given in patent US20250049800A1, “VCP/p97 INHIBITOR FOR THE TREATMENT OF CANCER” (CASI Pharmaceuticals, Inc., priority 2021, published 2025).
Several values for one entry are separate records, joined by “and”; a condition that tells them apart may be missing. Identical values can stand only once.

What was measured:
Activated Caspase 3 = Activated Caspase 3 biomarker in patient blood samples; type: in vivo, human; conditions: cohorts 4 and 5; one patient
Experimental: Two biomarkers were assessed in patients from cohorts 4 and 5. K48-Ub (ubiquitin) and Activated Caspase 3 biomarkers were analyzed from 5 patient blood samples.

[1] = Phase I study: plasma pharmacokinetics of orally administered Compound 1; type: in vivo, human; conditions: for AUC(0-inf) / AUC(0-t) / Cmax / half-life / Tmax: human, plasma, oral
Text: The study was designed as a multicenter, open-label Phase 1 study of orally administered Compound 1 in participants with R/R AML or participants with R/R intermediate- to high-risk MDS. […] Additional cohorts for participants with R/R intermediate- to high-risk MDS following hypomethylating agents or other AML cohorts may be added at a later time.
Similar dosing may be used in the dose expansion part of the study. […] Additional intensive PK testing is collected for any participants undergoing intra-patient dose escalation.
At the conclusion of the 900 mg QD cohort, subjects were enrolled in cohorts for BID dosing, starting with the 300 mg BID dosing.
Subjects were treated with Compound 1 QD as described in Example 2.
Subjects were treated with Compound 1 QD or BID dosing as described in Example 2 and blood samples were taken from subjects and analyzed as described in Example 3. Tables 16 and 17 show pharmacokinetic analyses for QD dosing for 100 mg, 175 mg, 275 mg, 350 mg, 400 mg and 900 mg cohorts and BID dosing for 300 mg and 350 mg cohorts. Abbreviations in Table 16 and Table 17: AR=Day 4 AUC0-24/Day 1 AUC0-24, NR=not reported; NA=not available. […] FIG. 9 and FIG. 10 show AUC for day 1 and day 4 of dosing with doses between 350-900 mg QD compared with 350 mg BID.

[2] = 300 mg, 300 mg BID, Day 1, 1 subject
[3] = 300 mg, 300 mg BID, Day 4, 1 subject
[4] = 350 mg, 350 mg BID, Day 1, Mean
[5] = 350 mg, 350 mg BID, Day 4, Mean

SMILES: Cc1cc2c(C(N)=O)cccc2n1-c1nc2c(c(NCc3ccccc3)n1)CCCN2 [Compound 1, 1-(4-(benzylamino)-5,6,7,8-tetrahydropyrido[2,3-d]pyrimidin-2-yl)-2-methyl-1H-indole-4-carboxamide]
- Activated Caspase 3, fold increase (Activated Caspase 3): 9 fold
- exposure level increases between the doses ([1]; 25 mg to 450 mg QD): generally proportional and linear
- Cmax/Dose ([1]; 100 mg QD, Day 1, Mean): 0.00372 µM/mg
- exposure of BID dosing compared with QD dosing ([1]; 350 mg BID vs 600, 750 and 900 mg QD, Day 1): higher level of exposure
- Cmax/Dose ([1]; 450 mg QD, Day 1, Mean): 0.00481 µM/mg
- AUC0-inf/Dose ([1]; 450 mg QD, Day 4, Mean): 0.0853 µM·h/mg
- AR ([1]; Cohort 1 (25 mg QD), Day 4): 0.914
- plasma exposure compared with CB-5083 ([1]; Compound 1 25 mg QD vs CB-5083 40 mg QD): significantly higher plasma exposure
- accumulation ([1]; between days 1 and 4): No accumulation
- plasma exposure compared with CB-5083 ([1]; human subjects): significantly higher plasma exposure than CB-5083
- AUC(0-inf) ([1]; 100 mg, 100 mg QD, Day 1, Mean): 1780 ng·h/mL and 4.31 µM·h
- AUC(0-t) ([1]; 100 mg, 100 mg QD, Day 1, Mean): 1420 ng·h/mL and 3.43 µM·h
- Cmax ([1]; 100 mg, 100 mg QD, Day 1, Mean): 154 ng/mL and 372 nM
- half-life ([1]; 100 mg, 100 mg QD, Day 1, Mean): 6.87 h
- AUC(0-inf) ([1]; 100 mg, 100 mg QD, Day 4, Mean): 3020 ng·h/mL and 7.32 µM·h
- AUC(0-t) ([1]; 100 mg, 100 mg QD, Day 4, Mean): 2750 ng·h/mL and 6.66 µM·h
- Cmax ([1]; 100 mg, 100 mg QD, Day 4, Mean): 356 ng/mL and 861 nM
- Tmax ([1]; 100 mg, 100 mg QD, Day 4, Mean): 2.67 h
- half-life ([1]; 100 mg, 100 mg QD, Day 4, Mean): 7.84 h
- AUC(0-inf) ([1]; 175 mg, 175 mg QD, Day 1, Mean): 5260 ng·h/mL and 12.7 µM·h
- AUC(0-t) ([1]; 175 mg, 175 mg QD, Day 1, Mean): 4380 ng·h/mL and 10.6 µM·h
- Cmax ([1]; 175 mg, 175 mg QD, Day 1, Mean): 636 ng/mL
- Tmax ([1]; 175 mg, 175 mg QD, Day 1, Mean): 3.33 h
- half-life ([1]; 175 mg, 175 mg QD, Day 1, Mean): 11.4 h
- AUC(0-inf) ([1]; 175 mg, 175 mg QD, Day 4, Mean): 2950 ng·h/mL and 7.13 µM·h
- AUC(0-t) ([1]; 175 mg, 175 mg QD, Day 4, Mean): 8760 ng·h/mL and 21.2 µM·h
- Cmax ([1]; 175 mg, 175 mg QD, Day 4, Mean): 490 ng/mL and 1.19 µM
- Tmax ([1]; 175 mg, 175 mg QD, Day 4, Mean): 13.5 h
- half-life ([1]; 175 mg, 175 mg QD, Day 4, Mean): 6.01 h
- AUC(0-inf) ([1]; 275 mg, 275 mg QD, Day 1, Mean): 4660 ng·h/mL and 11.3 µM·h
- AUC(0-t) ([1]; 275 mg, 275 mg QD, Day 1, Mean): 4140 ng·h/mL and 10 µM·h
- Cmax ([1]; 275 mg, 275 mg QD, Day 1, Mean): 679 ng/mL and 1.65 µM
- Tmax ([1]; 275 mg, 275 mg QD, Day 1, Mean): 2.57 h
- half-life ([1]; 275 mg, 275 mg QD, Day 1, Mean): 5.08 h
- AUC(0-inf) ([1]; 275 mg, 275 mg QD, Day 4, Mean): 9660 ng·h/mL and 23.4 µM·h
- AUC(0-t) ([1]; 275 mg, 275 mg QD, Day 4, Mean): 9230 ng·h/mL and 22.4 µM·h
- Cmax ([1]; 275 mg, 275 mg QD, Day 4, Mean): 827 ng/mL and 2 µM
- Tmax ([1]; 275 mg, 275 mg QD, Day 4, Mean): 3.6 h
- half-life ([1]; 275 mg, 275 mg QD, Day 4, Mean): 8.9 h
- AUC(0-t) [1, 2]: 12200 ng·h/mL and 29.6 µM·h
- Cmax [1, 2]: 965 ng/mL and 2.34 µM
- Tmax [1, 2]: 12 h
- AUC(0-inf) [1, 3]: 27700 ng·h/mL and 67 µM·h
- AUC(0-t) [1, 3]: 27400 ng·h/mL and 66.4 µM·h
- Cmax [1, 3]: 1920 ng/mL and 4.65 µM
- Tmax [1, 3]: 3 h
- AUC(0-inf) [1, 4]: 29600 ng·h/mL and 71.8 µM·h
- AUC(0-t) [1, 4]: 14600 ng·h/mL and 35.3 µM·h
- Cmax [1, 4]: 1340 ng/mL and 3.25 µM
- Tmax [1, 4]: 7.63 h
- AUC(0-inf) [1, 5]: 31800 ng·h/mL and 77 µM·h
- AUC(0-t) [1, 5]: 23400 ng·h/mL and 56.7 µM·h
- Cmax [1, 5]: 2020 ng/mL and 4.89 µM
- Tmax [1, 5]: 3.25 h
- AUC(0-inf) ([1]; 350 mg, 350 mg QD, Day 1, Mean): 5330 ng·h/mL and 12.9 µM·h
- AUC(0-t) ([1]; 350 mg, 350 mg QD, Day 1, Mean): 5200 ng·h/mL and 12.6 µM·h
- Cmax ([1]; 350 mg, 350 mg QD, Day 1, Mean): 746 ng/mL and 1.81 µM
- Tmax ([1]; 350 mg, 350 mg QD, Day 1, Mean): 3.2 h
- half-life ([1]; 350 mg, 350 mg QD, Day 1, Mean): 4.48 h
- AUC(0-inf) ([1]; 350 mg, 350 mg QD, Day 4, Mean): 8570 ng·h/mL and 20.8 µM·h
- AUC(0-t) ([1]; 350 mg, 350 mg QD, Day 4, Mean): 8440 ng·h/mL and 20.4 µM·h
- Cmax ([1]; 350 mg, 350 mg QD, Day 4, Mean): 834 ng/mL and 2.02 µM
- Tmax ([1]; 350 mg, 350 mg QD, Day 4, Mean): 4 h
- half-life ([1]; 350 mg, 350 mg QD, Day 4, Mean): 7.55 h
- AUC(0-inf) ([1]; 450 mg, 450 mg QD, Day 1, Mean): 8860 ng·h/mL and 21.5 µM·h
- AUC(0-t) ([1]; 450 mg, 450 mg QD, Day 1, Mean): 8340 ng·h/mL and 20.2 µM·h
- Cmax ([1]; 450 mg, 450 mg QD, Day 1, Mean): 895 ng/mL and 2.17 µM
- Tmax ([1]; 450 mg, 450 mg QD, Day 1, Mean): 3 h
- half-life ([1]; 450 mg, 450 mg QD, Day 1, Mean): 6.05 h
- AUC(0-inf) ([1]; 450 mg, 450 mg QD, Day 4, Mean): 15900 ng·h/mL and 38.4 µM·h
- AUC(0-t) ([1]; 450 mg, 450 mg QD, Day 4, Mean): 14500 ng·h/mL
- Cmax ([1]; 450 mg, 450 mg QD, Day 4, Mean): 1350 ng/mL and 3.28 µM
- Tmax ([1]; 450 mg, 450 mg QD, Day 4, Mean): 4 h
- half-life ([1]; 450 mg, 450 mg QD, Day 4, Mean): 9.62 h
- AUC(0-inf) ([1]; 600 mg, 600 mg QD, Day 1, Mean): 6500 ng·h/mL and 15.7 µM·h
- AUC(0-t) ([1]; 600 mg, 600 mg QD, Day 1, Mean): 5710 ng·h/mL and 13.8 µM·h
- Cmax ([1]; 600 mg, 600 mg QD, Day 1, Mean): 799 ng/mL and 1.93 µM
- Tmax ([1]; 600 mg, 600 mg QD, Day 1, Mean): 3.6 h
- half-life ([1]; 600 mg, 600 mg QD, Day 1, Mean): 5.94 h
- AUC(0-inf) ([1]; 600 mg, 600 mg QD, Day 4, Mean): 18200 ng·h/mL and 44 µM·h
- AUC(0-t) ([1]; 600 mg, 600 mg QD, Day 4, Mean): 17200 ng·h/mL and 41.7 µM·h
- Cmax ([1]; 600 mg, 600 mg QD, Day 4, Mean): 1960 ng/mL and 4.75 µM
- Tmax ([1]; 600 mg, 600 mg QD, Day 4, Mean): 3.4 h
- half-life ([1]; 600 mg, 600 mg QD, Day 4, Mean): 9.77 h
- AUC(0-inf) ([1]; 750 mg, 750 mg QD, Day 1, Mean): 6160 ng·h/mL and 14.9 µM·h
- AUC(0-t) ([1]; 750 mg, 750 mg QD, Day 1, Mean): 5960 ng·h/mL and 14.4 µM·h
- Cmax ([1]; 750 mg, 750 mg QD, Day 1, Mean): 796 ng/mL and 1.93 µM
- Tmax ([1]; 750 mg, 750 mg QD, Day 1, Mean): 3.33 h
- half-life ([1]; 750 mg, 750 mg QD, Day 1, Mean): 4.49 h
- AUC(0-inf) ([1]; 750 mg, 750 mg QD, Day 4, Mean): 13200 ng·h/mL and 32.1 µM·h
- AUC(0-t) ([1]; 750 mg, 750 mg QD, Day 4, Mean): 12900 ng·h/mL and 31.3 µM·h
- Cmax ([1]; 750 mg, 750 mg QD, Day 4, Mean): 2260 ng/mL and 5.48 µM
- Tmax ([1]; 750 mg, 750 mg QD, Day 4, Mean): 2.5 h
- half-life ([1]; 750 mg, 750 mg QD, Day 4, Mean): 6.67 h
- AUC(0-inf) ([1]; 900 mg, 900 mg QD, Day 1, Mean): 14000 ng·h/mL and 33.9 µM·h
- AUC(0-t) ([1]; 900 mg, 900 mg QD, Day 1, Mean): 12300 ng·h/mL and 29.8 µM·h
- Cmax ([1]; 900 mg, 900 mg QD, Day 1, Mean): 1550 ng/mL and 3.76 µM
- Tmax ([1]; 900 mg, 900 mg QD, Day 1, Mean): 2.5 h
- half-life ([1]; 900 mg, 900 mg QD, Day 1, Mean): 5.71 h
- AUC(0-inf) ([1]; 900 mg, 900 mg QD, Day 4, Mean): 27000 ng·h/mL and 65.3 µM·h
- AUC(0-t) ([1]; 900 mg, 900 mg QD, Day 4, Mean): 26700 ng·h/mL and 64.6 µM·h
- Cmax ([1]; 900 mg, 900 mg QD, Day 4, Mean): 3220 ng/mL and 7.8 µM
- Tmax ([1]; 900 mg, 900 mg QD, Day 4, Mean): 3.33 h
- half-life ([1]; 900 mg, 900 mg QD, Day 4, Mean): 6.47 h
- Cmax ([1]; 175 mg QD, Day 1, Mean): 1540 nM
- AUC(0-t) ([1]; 450 mg QD, Day 4, Mean): 35.2 µM·h
- exposures compared with CB-5083 ([1]; vs CB-5083 at greater than 200 mg, FIG. 4): greater than dosing CB-5083 at greater than 200 mg
